The results in this text go back to ChEMBL document CHEMBL3232724, “Decreasing acidity in a series of aldose reductase inhibitors: 2-Fluoro-4-(1H-pyrrol-1-yl)phenol as a scaffold for improved membrane permeation” (Bioorg Med Chem, 2014).

A value given as a limit tells only on which side of the number the result lay.

Series [1] has as its system Jejunum. Conditions: rat.
The target of series [2] is Aldo-keto reductase family 1 member B1 (Rattus norvegicus) (UniProt P07943). Nature of the series: Inhibition of Fischer-344 rat lens ALR2 using D, L-glyceraldehyde as substrate at 100 uM by spectrophotometry. Conditions: Lens of camera-type eye. In kind it is tissue-based.
Series [3] concerns the target Aldo-keto reductase family 1 member B1 (Rattus norvegicus, UniProt P07943). Nature of the series: Inhibition of Fischer-344 rat lens ALR2 using D, L-glyceraldehyde as substrate by spectrophotometry. In kind it is tissue-based, Lens of camera-type eye.
Series [4] concerns the target Aldo-keto reductase family 1 member A1 (Rattus norvegicus, UniProt P51635). Nature of the series: Inhibition of Fischer-344 rat kidney ALR1 using D-glucuronate as substrate by spectrophotometry.
The species entered for series [5] is Rattus norvegicus. Nature of the series: Selectivity index, ratio of IC50 for Fischer-344 rat kidney ALR1 to IC50 for Fischer-344 rat lens ALR2. Type of series: tissue-based. The settings on record: Lens of camera-type eye.
Series [6] can be described thus: Inhibition of glucose-induced sorbitol accumulation in Wistar rat lens at 10 uM after 3 hrs by fluorescence assay (reference value: 755.27 +/- 19.7 nmol/g). In kind it is functional, Lens of camera-type eye.
The nature of series [7]: Inhibition of glucose-induced sorbitol accumulation in Wistar rat lens at 50 uM after 3 hrs by fluorescence assay (reference value: 755.27 +/- 19.7 nmol/g). In kind it is functional, Lens of camera-type eye.
A short description of series [8]: Octanol-water distribution coefficient, log D of the compound at pH 7.4 by shake flask method. Type of series: physicochemical.
The nature of series [9]: Octanol-water distribution coefficient, log D of the compound at pH 7.8 by shake flask method. In kind it is physicochemical.
Series [10] is described as follows: Octanol-water distribution coefficient, log D of the compound at pH 8 by shake flask method. In kind it is physicochemical.
Series [11] is described as follows: Octanol-water distribution coefficient, log D of the compound at pH 8.25 by shake flask method. In kind it is physicochemical.
A short description of series [12]: Octanol-water distribution coefficient, log D of the compound at pH 8.5 by shake flask method. Type of series: physicochemical.
The nature of series [13]: Octanol-water distribution coefficient, log D of the compound at pH 9.2 by shake flask method. In kind it is physicochemical.
Series [14] can be described thus: Octanol-water distribution coefficient, log D of the compound at pH 11 by shake flask method. Type of series: physicochemical.
The nature of series [15]: Octanol-water distribution coefficient, log D of the compound at pH 12 by shake flask method. Type of series: physicochemical.
Series [16] relates to Jejunum. Description: Apparent permeability coefficient in Sprague-Dawley rat jejunum at 10 uM. Type of series: ADME, tissue-based.
The test system of series [17] is Jejunum. Nature of the series: Apparent permeability coefficient in Sprague-Dawley rat jejunum at 100 uM. In kind it is ADME, tissue-based.
Series [18] is described as follows: Octanol-water distribution coefficient, log D of the compound at pH 7 by shake flask method. In kind it is physicochemical.

Sequence of Aldo-keto reductase family 1 member A1 (P51635 whole entry, looked up): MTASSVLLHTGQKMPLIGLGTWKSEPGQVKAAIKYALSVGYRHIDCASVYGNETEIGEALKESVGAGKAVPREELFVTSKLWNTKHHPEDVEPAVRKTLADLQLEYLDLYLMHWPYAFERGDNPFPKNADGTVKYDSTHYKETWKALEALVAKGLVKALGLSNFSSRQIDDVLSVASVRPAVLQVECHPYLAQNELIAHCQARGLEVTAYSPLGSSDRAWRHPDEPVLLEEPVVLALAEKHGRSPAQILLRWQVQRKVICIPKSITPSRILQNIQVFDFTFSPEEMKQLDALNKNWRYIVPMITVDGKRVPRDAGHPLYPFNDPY

`CC(C)NCC(O)COc1cccc2ccccc12` (configuration not stated) [PROPRANOLOL] showed a Papp in [1] of 11.1 ucm/s.

A word on the inhibition: it is how much of the control response was suppressed. A higher inhibition goes with strong suppression. Take `O=C(c1ccccc1)c1ccn(-c2cccc(O)c2)c1`: the inhibition in series [2] came out at 21.5%.

The IC50 is the midpoint of a concentration-inhibition curve. A lower IC50 goes with greater potency in that assay. Consider `O=C(c1ccccc1)c1ccn(-c2ccc(O)cc2)c1`, for which the half-inhibitory concentration (IC50) in series [3] is 55.4 µM; in series [4] it was over 100 µM. Also, the Ratio IC50 in [5] was over 1.8.

The compound `COc1ccc(C(=O)c2cccn2-c2ccc(O)c(F)c2)cc1` gave an inhibition in series [2] of 43.7%.

Regarding `O=C(c1ccccc1)c1ccn(-c2ccc(O)c(F)c2)c1`, the results for the IC50 in series [3] and in series [4] were 10.1 µM and 38.2 µM, respectively. The Ratio IC50 in series [5] amounted to 3.79.

Consider `O=C(c1ccc(-c2ccccc2)cc1)c1ccn(-c2ccc(O)c(F)c2)c1`, for which, in [2], the inhibition stood at 14.2%.

On to `O=C(c1cccn1-c1ccc(O)c(F)c1)C(F)F`, for which the half-maximal inhibitory concentration (IC50) in series [3] was 60.8 µM; in series [4], over 100 µM. The Ratio IC50 in series [5] was over 1.65.

For orientation: logD means lipophilicity at a set pH, counting ionised and neutral species. Consider `O=C(c1ccccc1)c1cc(C(=O)C(F)(F)F)n(-c2ccc(O)c(F)c2)c1`, for which the half-inhibitory concentration (IC50) in series [3] was 1.04 µM; in [4], 20.4 µM. Moreover, the Ratio IC50 in series [5] was determined as 19.6. Also, the values for the Activity in series [6] and in series [7] were 586.08 nmol/g and 462.49 nmol/g, respectively. Also, the logD in series [8] was determined as 3.86; in series [9], 3.5; in series [10] it was 3.6; in series [11] it was 3.3; in series [12], 3.41; in [13], 2.48. In addition, the values for the pH-dependent lipophilicity (logD) in series [14] and in series [15] were 0.66 and -0.38, respectively.

Consider `O=C(c1ccccc1)c1ccn(-c2ccc(/C=N/O)c([N+](=O)[O-])c2)c1`, for which the inhibition in [2] was 60.5%.

As to `O=C1OC2(c3ccc(O)cc3Oc3cc(O)ccc32)c2ccccc21` [FLUORESCEIN], in series [16], the Papp is given as 5.2 ucm/s.

On to `O=C(c1ccc(OC(F)(F)F)cc1)c1ccn(-c2ccc(O)c(F)c2)c1`, for which the IC50 in series [3] was 41.7 µM; in series [4], over 100 µM. For the same compound, in [5], the Ratio IC50 was over 2.4.

For `O=C(c1ccccc1)c1cccn1-c1ccc(O)c(F)c1`, the inhibition in series [2] turned out to be 37.2%.

Compound `O=C(c1ccccc1)c1ccn(-c2ccc(/C=N/O)c(O)c2)c1` yielded an inhibition in series [2] of 33.7%.

As for `O=C(c1ccccc1)c1ccn(-c2ccc(F)c(F)c2)c1`, the inhibition in series [2] was determined as 5.81%.

In turn, `O=C(c1ccccc1)c1ccn(-c2ccc(O)c(/C=N/O)c2)c1` displayed an inhibition in series [2] of 35.3%.

As to `COc1ccc(C(=O)c2ccn(-c3ccc(O)c(F)c3)c2)cc1`, the half-inhibitory concentration (IC50) came to 9.23 µM in [3] and 26.2 µM in series [4]. In series [5], the Ratio IC50 amounted to 2.84.

As for `O=C(c1ccccc1)c1cc(C(=O)C(F)F)n(-c2ccc(O)c(F)c2)c1`, the IC50 in [3] was 0.443 µM; in [4], 12.1 µM. Also, the Ratio IC50 in [5] worked out at 27.3. The Activity in series [6] is recorded as 487.07 nmol/g; in [7] it was 396.89 nmol/g. Further, the Papp in series [17] was found to be 6.4 ucm/s. Besides, the pH-dependent lipophilicity (logD) worked out at 3.1 in series [8]; 2.98 in series [10]; 2.62 in series [12]; 1.72 in series [13]; 0.1 in series [14]; 3.41 in [18].

In the case of `O=C(c1ccccc1)c1ccn(-c2cccc(/C=N/O)c2O)c1`, the inhibition in series [2] is 23.5%.

Turning to `O=C(c1ccccc1)c1ccn(-c2ccc([N+](=O)[O-])c(/C=N/O)c2)c1`, the inhibition in [2] came to 36.3%.

With `COc1cccc(C(=O)c2ccn(-c3ccc(O)c(F)c3)c2)c1`, the IC50 was determined as 6.75 µM in [3] and 28.7 µM in series [4]. Further, the Ratio IC50 in [5] stood at 4.25.

In the case of `O=C(c1ccccc1)c1ccn(-c2ccccc2O)c1`, the inhibition in [2] is 16.1%.

In the case of `O=C(c1cccn1-c1ccc(O)c(F)c1)C(F)(F)F`, the IC50 is 73.8 µM in [3] and over 100 µM in series [4]. Also, in series [5], the Ratio IC50 is over 1.36.

For `O=C(c1ccn(-c2ccc(O)c(F)c2)c1)c1ccc(Br)cc1F`, the figures for the IC50 in series [3] and in series [4] were 24.8 µM and 35.5 µM, respectively. In addition, the Ratio IC50 in series [5] was found to be 1.43.
